A short description of data set [1]: DPPH radical scavenging assay. Particulars: for SC50: concentration required for 50% reduction of DPPH radicals, 37 °C, 30 min, 517 nm, nc = SC50 cannot be calculated due to weak or no related activities; for antioxidant activity on DPPH radical scavenging (in words): compared with positive control ascorbic acid. How it is done: The 2, 2-diphenyl-1-picrylhydrazyl (Aldrich Chem. Co. Ltd, Shanghai, China) radical scavenging activity assay was performed according to the previously published method with some modification. Test samples were dissolved in MeOH to six different concentrations ranging from 3.125 to 100 μM. Then, 100 μL of 100 μM DPPH in MeOH were mixed with 100 μL of samples at different concentrations in the wells of 96-well plates. The reaction mixtures were incubated in the dark at 37 °C for 30 min and then measured at 517 nm. Ascorbic acid was used as the positive control. The scavenging activity (SC) was estimated as follows: % SC = [1 − (Asample − Ablank)/Acontrol] ×100. Asample was the equivalent mixture of test sample and DPPH solution. Ablank was the equivalent mixture of test sample and MeOH solution. Acontrol was the equivalent mixture of DPPH and MeOH solution. The SC50 values were used to evaluate the antioxidant activities of isolated compounds. The experiments were performed in triplicate, and the data were expressed as the means ± SD of three independent experiments.

Data set [2] concerns NO production in LPS-activated RAW 264.7 cells. Briefly: Inhibition of NO production in LPS-activated RAW 264.7 cells (Griess reaction). Particulars: Mus musculus, RAW264.7; RAW 264.7, 1 μg/mL LPS, 24 h; mean ± SD (n = 3); read-out: IC50 (NO inhibitory activity). It is filed as cell-based. How it is done: The macrophage RAW 264.7 cells were obtained from the Cell Bank of the Chinese Academy of Sciences (Shanghai, China). A total of 180 μL of RAW 264.7 cells (1 × 10^4) were plated respectively in each well of 96-well plate and cultured for 24 h, then the supernatant of the culture was discarded and 180 μL complete medium with 1 μg/mL LPS and different concentrations of test samples were added into triplicate wells for 24 h. The inhibition effects on LPS-stimulated NO production was evaluated by the Griess reaction assay. The experiments were performed in triplicate, and the data were expressed as the means ± SD of three independent experiments.
On the technique in general: Nitrite, measured by Griess reagent, commonly stands in for NO production.

Data set [3] relates to A549. Put plainly: Cytotoxic assay (CCK-8), A549. It is filed as cell-based, human. To be noted: Homo sapiens, A549, 48 h, mean ± SD (n = 3). How it is done: (§1) Four human cancer cell lines, A549, NCI-H292, SiHa and MKN45, were purchased from the Cell Bank of the Chinese Academy of Sciences (Shanghai, China). […] Cisplatin (Abmole Bioscience, Shanghai, China) was used as positive control.
(§2) A total of 180 μL of cancer cells (5 × 10^3) were plated in each well of 96-well plates and cultured for 24 h, then the supernatant of the culture was discarded and 180 μL complete medium with different concentrations of test samples were added into triplicate wells of each cell line, respectively. Thereafter, A549, NCI-H292, SiHa and MKN45 were incubated for 48 h, respectively. The cell viability was evaluated by Cell Counting Kit-8 (CCK-8, Best Bio., Beijing, China), respectively. The experiments were performed in triplicate, and the data were expressed as the means ± SD of three independent experiments.

In data set [4] the test system is NCI-H292. Briefly: Cytotoxic assay (CCK-8), NCI-H292. In kind it is cell-based, human. Particulars: Homo sapiens, NCI-H292, 48 h, mean ± SD (n = 3). How it is done:
as §1, §2

Data set [5] concerns SiHa. Put plainly: Cytotoxic assay (CCK-8), SiHa. It is filed as cell-based, human. To be noted: Homo sapiens, 48 h, mean ± SD (n = 3). The procedure:
as §1, §2

Data set [6] relates to MKN45. Briefly: Cytotoxic assay (CCK-8), MKN45. In kind it is cell-based, human. Particulars: Homo sapiens, MKN-45, MKN45, 48 h, mean ± SD (n = 3). The procedure:
as §1, §2

The nature of data set [7]: Cytotoxicity in RAW 264.7 cells (CCK-8). Particulars: mouse.
Experimental: (§3) The cell viability was determined by the CCK-8 assay method. The cytotoxicity was calculated from the plotted results using untreated cells at 100%.
The subject of data set [8] is LPS-induced acute lung injury. Also noted: method as in PMID 34417573, PMID 34038447. Particulars: mice; cited from earlier work.
The subject of data set [9] is RAW 264.7 cells.
Experimental: as §3

Entries after “also recorded” stand apart in the source; their conditions may differ. Bounds are passed on as bounds.

The values that follow come from publication PMC10054634, “Chemical Constituents of Thesium chinense Turcz and Their In Vitro Antioxidant, Anti-Inflammatory and Cytotoxic Activities” (Molecules, 2023).

As to `COc1cc(C(O)C(CO)Oc2c(OC)cc(C3OCC4C(c5ccc(OC6OC(CO)C(O)C(O)C6O)c(OC)c5)OCC34)cc2OC)ccc1O` (stereo not shown) [Compound 9, samsesquinoside], the SC50 in data set [1] was 47.3 ± 2.3 µM. Further, the IC50 in data set [2], in [3], in data set [4], in [5], in data set [6] and in [7] was > 200 µM in each case.
For `COc1cc(C2OCC3C(c4ccc(OC5OC(CO)C(O)C(O)C5O)c(OC)c4)OCC23)ccc1O` [Compound 10, pinoresinol-4-O-D-glucoside], the SC50 in data set [1] is 30.5 ± 6.5 µM. The IC50 in data set [2], in data set [3], in [4], in [5], in data set [6] and in data set [7] was > 200 µM in each case.
On to `COc1cc(C2OCC3C(c4cc(OC)c(OC5OC(CO)C(O)C(O)C5O)c(OC)c4)OCC23)cc(OC)c1O` [Compound 11, syringaresinol-4′-O-β-D-glucopyranoside], for which the SC50 in data set [1] was 16.2 ± 1.6 µM. Moreover, the IC50 in data set [2], in [3], in data set [4], in [5], in data set [6] and in data set [7] was > 200 µM each time.
`COc1cc(C(O)C(CO)Oc2c(OC)cc(C(O)C(O)CO)cc2OC)ccc1O` (stereo not drawn) [Compound 17, (erythro, erythro)-1-[4-[2-hydroxy-2-(4-hydroxy-3-methoxy-phenyl)-1-(hydroxymethyl)ethoxy]-3,5-dimethoxyphenyl]-1,2,3-propanetriol]: the “antioxidant activity on DPPH radical scavenging (in words)” value (shortened to “antioxidant activity”) in data set [1] was “moderate activity”. Also, the IC50 in [2], in data set [3], in data set [4], in data set [5], in [6] and in [7] was > 200 µM each time.
`COc1cc(C(O)C(CO)Oc2ccc(C(O)C(O)CO)cc2OC)ccc1O` (stereo not shown) [Compound 18, 1-(4-hydroxy-3-methoxy)-phenyl-2-[4-(1,2,3-trihydroxypropyl)-2-methoxy]-phenoxy-1,3-propan-diol]: the “antioxidant activity” value in data set [1] is on record as “weak antioxidant activities; also recorded: moderate activity”. Moreover, the SC50 in [1] was 127.9 ± 15.4 µM. Also, the IC50 in data set [2], in data set [3], in data set [4], in data set [5], in [6] and in data set [7] was > 200 µM each time.
Regarding `COc1cc([C@@H]2OC[C@@H](Cc3ccc(O[C@@H]4O[C@H](CO)[C@@H](O)[C@H](O)[C@H]4O)c(OC)c3)[C@H]2CO)ccc1O` [Compound 19, lariciresinol-4-O-β-D-glucoside], in data set [1], the “antioxidant activity” value is “significant scavenging activity”. Also, in data set [1], the SC50 was 48.8 ± 2.9 µM. Besides, the 50% inhibitory concentration (IC50) in data set [2], in data set [3], in data set [4], in data set [5], in [6] and in data set [7] was > 200 µM each time.
Turning to `CCOC(=O)/C=C/c1ccc(O)c(OC)c1` [Compound 21, 3-O-ethyl ferulate], the SC50 in data set [1] is 50.8 ± 1.4 µM. In addition, the IC50 is 28.6 ± 3 µM in [2]; > 200 µM in [3]; > 200 µM in data set [4]; > 200 µM in data set [5]; > 200 µM in [6]; > 200 µM in data set [7]. Further, the “anti-inflammatory effects against LPS-induced acute lung injury” value in data set [8] was “obvious anti-inflammatory effects”.
On to `COc1cc([C@@H](OC)[C@H](O)CO)ccc1O` [Compound 26, alatusol D], for which the “antioxidant activity” value in data set [1] is recorded as “weak antioxidant activities”. Moreover, the SC50 in data set [1] is 284.0 ± 16.5 µM. Moreover, the IC50 in data set [2], in data set [3], in data set [4], in data set [5], in data set [6] and in [7] was > 200 µM throughout.
On to scopolin [Compound 27], for which the IC50 in data set [9] was > 200 µM.

In general, IC50 refers to the midpoint of a concentration-inhibition curve.
